Experimental data from paper PMC8233901, “D-Amino Acid-Containing Lipopeptides Derived from the Lead Peptide BP100 with Activity against Plant Pathogens” (International Journal of Molecular Sciences, 2021).
Where two headings read alike, the source gives them in different places. Where a SMILES comes first, the peptide text is derived from it. [ ]: non-standard residue; d: D form. The star is where a group is joined. Lauroyl = CCCCCCCCCCCC(=O)*; Hexanoyl = CCCCCC(=O)*; Butyryl = CCCC(=O)*

Key:
[1] = tested on: horse erythrocytes; assay: Hemolytic activity (hemoglobin release from erythrocytes); type: cell-based; settings: 37 °C, ± confidence interval (α = 0.05); for Hemolysis (%) 250 µM / Hemolysis (%) 375 µM / Hemolysis (%) 150 µM: relative to melittin
Experimental: The hemolytic activity of the compounds was evaluated by determining hemoglobin release from erythrocyte suspensions of horse blood (5% vol/vol) (Oxoid) as previously described. Blood was centrifuged at 6000 g for 5 min, washed three times with tris(hydroxymethyl)aminomethane (TRIS) buffer (10 mM TRIS, 150 mM NaCl, pH 7.2) and diluted 10 times. Compounds were solubilized in TRIS buffer at 750, 500, 300 and 100 μM and mixed with horse erythrocytes (1:1 v/v). The mixture was incubated under continuous shaking for 1 h at 37 °C. Then, the tubes were centrifuged at 3500 g for 10 min, 80 μL aliquots of the supernatant transferred to 100-well microplates (Bioscreen), diluted with 80 μL water, and the absorbance measured at 540 nm (Bioscreen). Complete hemolysis was obtained by the addition of melittin at 100 μM (Sigma-Aldrich Corporation, Madrid, Spain). The percentage of hemolysis (H) was calculated using the equation: H = 100 × [(Op−Ob)/(Om−Ob)], where Op is the density for a given compound concentration, Ob for the buffer, and Om for the melittin-positive control.

[2] = tested on: tobacco leaves; assay: Effect of peptide infiltration on tobacco leaves (lesion size); type: in vivo; settings: ± confidence interval; for Size of the lesion (mm) 50 µM: 100 µL infiltrated into mesophyll of tobacco leaves
Experimental: The lipopeptides were evaluated for their effect upon infiltration on tobacco leaves as described previously. Peptide solutions of 50, 150 and 250 μM were infiltrated (100 μL) into the mesophylls of fully expanded tobacco leaves. Infiltrations were carried out in a single leaf, and for each peptide and dose, at least three leaves randomly distributed in different plants were infiltrated. Control infiltrations with water (negative control) or melittin (positive control) at the same molar concentration were performed. The appearance of symptoms on the leaves was followed for 48 h after infiltration and measured as a lesion diameter.

[3] = tested on: horse erythrocytes; set-up: method as in earlier work; settings: all-L parent lipopeptides, ± confidence interval (α = 0.05), cited from earlier work
[4] = tested on: tobacco leaves; set-up: method as in earlier work; settings: all-L parent lipopeptides, ± confidence interval, cited from earlier work
[5] = D-amino acid lipopeptides, 250 µM, TRIS buffer pH 7.2, 1 h
[6] = D-amino acid lipopeptides, lesion diameter, 48 h, at least three leaves
[7] = D-amino acid lipopeptides, 100 µL infiltrated into tobacco leaves, lesion diameter, 48 h, at least three leaves
[8] = D-amino acid lipopeptides, 250 µM, 100 µL infiltrated into tobacco leaves, lesion diameter, 48 h, at least three leaves
[9] = Table 2, 250 µM infiltrated into tobacco leaves
[10] = D-amino acid lipopeptides, TRIS buffer pH 7.2, 1 h

Compound | Hemolysis (%) 50 µM ([1]; D-amino acid lipopeptides, 50 µM, TRIS buffer pH 7.2, 1 h, absorbance 540 nm, relative to melittin 100 µM) | Hemolysis (%) 250 µM [1, 5] | Size of the lesion (mm) 50 µM [2, 6] | Size of the lesion (mm) 150 µM [2, 7] | Size of the lesion (mm) 250 µM [2, 8] | Size of the lesion (mm) 250 µM [2, 9] | Hemolysis (%) 250 µM ([1]; Table 2, 250 µM, 1 h) | Hemolysis (%) 375 µM [1, 10] | Hemolysis (%) 150 µM [1, 10] | Hemolysis (%) 50 µM ([3]; 50 µM) | Hemolysis (%) 250 µM ([3]; 250 µM) | Hemolysis (%) 375 µM ([3]; 375 µM) | Size of the lesion (mm) 50 µM ([4]; 50 µM) | Size of the lesion (mm) 150 µM ([4]; 150 µM) | Size of the lesion (mm) 250 µM ([4]; 250 µM)
CCCCCCCCCCCC(=O)NCCCC[C@H](NC(=O)[C@@H](NC(=O)[C@H](CCCCN)NC(=O)[C@H](CCCCN)NC(=O)[C@@H](Cc1ccccc1)NC(=O)[C@H](CC(C)C)NC(=O)[C@H](CCCCN)NC(=O)[C@H](CCCCN)NC(C)=O)[C@@H](C)CC)C(=O)N[C@@H](CCCCN)C(=O)N[C@@H](Cc1ccc(O)cc1)C(=O)N[C@@H](CC(C)C)C(N)=O [BP490, Ac-KKLfKKIK(COC11H23)KYL-NH2] (Ac-KKL[dF]KKIK(Lauroyl)KYL-NH2) | 100 ± 3% | 100 ± 6% | 4 ± 0.7 mm | 6 ± 2 mm | 11 ± 3 mm | 11 ±3 mm |  |  |  |  |  |  |  |  | 
CCCCCC(=O)NCCCC[C@H](NC(=O)[C@H](CCCCN)NC(=O)[C@H](CCCCN)NC(=O)[C@@H](Cc1ccccc1)NC(=O)[C@H](CC(C)C)NC(=O)[C@H](CCCCN)NC(=O)[C@H](CCCCN)NC(C)=O)C(=O)N[C@@H](CC(C)C)C(=O)N[C@@H](CCCCN)C(=O)N[C@@H](Cc1ccc(O)cc1)C(=O)N[C@@H](CC(C)C)C(N)=O [BP494, Ac-KKLfKKK(COC5H11)LKYL-NH2] (Ac-KKL[dF]KKK(Hexanoyl)LKYL-NH2) |  |  | 1 ± 1 mm | 6 ± 1 mm | 8 ± 1 mm | 8 ± 1 mm | 0.2 ± 0.2% |  |  |  |  |  |  |  | 
CCCCCC(=O)NCCCC[C@H](NC(=O)[C@H](Cc1ccc(O)cc1)NC(=O)[C@H](CCCCN)NC(=O)[C@H](CC(C)C)NC(=O)[C@@H](NC(=O)[C@H](CCCCN)NC(=O)[C@H](CCCCN)NC(=O)[C@@H](Cc1ccccc1)NC(=O)[C@H](CC(C)C)NC(=O)[C@H](CCCCN)NC(=O)[C@H](CCCCN)NC(C)=O)[C@@H](C)CC)C(N)=O [BP495, Ac-KKLfKKILKYK(COC5H11)-NH2] (Ac-KKL[dF]KKILKYK(Hexanoyl)-NH2) |  |  | 3 ± 0 mm | 6 ± 2 mm | 11 ± 2 mm | 11 ± 2 mm | 0.6 ± 1% |  |  |  |  |  |  |  | 
CCCC(=O)NCCCC[C@H](NC(=O)[C@H](Cc1ccc(O)cc1)NC(=O)[C@H](CCCCN)NC(=O)[C@H](CC(C)C)NC(=O)[C@@H](NC(=O)[C@H](CCCCN)NC(=O)[C@H](CCCCN)NC(=O)[C@@H](Cc1ccccc1)NC(=O)[C@H](CC(C)C)NC(=O)[C@H](CCCCN)NC(=O)[C@H](CCCCN)NC(C)=O)[C@@H](C)CC)C(N)=O [BP496, Ac-KKLfKKILKYK(COC3H7)-NH2] (Ac-KKL[dF]KKILKYK(Butyryl)-NH2) |  | 1 ± 1% | 3 ± 0.5 mm | 4 ± 0.5 mm | 10 ± 3 mm | 10 ± 3 mm |  | 1 ± 0.5% |  |  |  |  |  |  | 
CCCCCCCCCCCC(=O)NCCCC[C@H](NC(=O)[C@H](CC(C)C)NC(=O)[C@@H](NC(=O)[C@H](CCCCN)NC(=O)[C@H](CCCCN)NC(=O)[C@@H](Cc1ccccc1)NC(=O)[C@H](CC(C)C)NC(=O)[C@H](CCCCN)NC(=O)[C@H](CCCCN)NC(C)=O)[C@@H](C)CC)C(=O)N[C@@H](Cc1ccc(O)cc1)C(=O)N[C@@H](CC(C)C)C(N)=O [BP497, Ac-KKLfKKILK(COC11H23)YL-NH2] |  | 100 ± 2% | 5 ± 1 mm | 18 ± 1 mm | 18 ± 0 mm | 18 ± 0 mm |  | 100 ± 4% | 100 ± 2% |  |  |  |  |  | 
CCCC(=O)NCCCC[C@H](NC(=O)[C@@H](Cc1ccccc1)NC(=O)[C@H](CC(C)C)NC(=O)[C@H](CCCCN)NC(=O)[C@H](CCCCN)NC(C)=O)C(=O)N[C@@H](CCCCN)C(=O)N[C@H](C(=O)N[C@@H](CC(C)C)C(=O)N[C@@H](CCCCN)C(=O)N[C@@H](Cc1ccc(O)cc1)C(=O)N[C@@H](CC(C)C)C(N)=O)[C@@H](C)CC [BP498, Ac-KKLfK(COC3H7)KILKYL-NH2] |  | 21 ± 3% | 4 ± 3 mm | 6 ± 2 mm | 6 ± 1 mm | 6 ± 1 mm |  |  |  |  |  |  |  |  | 
CCCC(=O)NCCCC[C@H](NC(=O)[C@H](CC(C)C)NC(=O)[C@@H](NC(=O)[C@H](CCCCN)NC(=O)[C@H](CCCCN)NC(=O)[C@@H](Cc1ccccc1)NC(=O)[C@H](CC(C)C)NC(=O)[C@H](CCCCN)NC(=O)[C@H](CCCCN)NC(C)=O)[C@@H](C)CC)C(=O)N[C@@H](Cc1ccc(O)cc1)C(=O)N[C@@H](CC(C)C)C(N)=O [BP499, Ac-KKLfKKILK(COC3H7)YL-NH2] |  | 11 ± 1% | 6 ± 1 mm | 8 ± 2 mm | 8 ± 2 mm | 8 ± 2 mm |  |  |  |  |  |  |  |  | 
CCCCCCCCCCCC(=O)NCCCC[C@H](NC(=O)[C@H](CCCCN)NC(=O)[C@H](CCCCN)NC(C)=O)C(=O)N[C@H](Cc1ccccc1)C(=O)N[C@@H](CCCCN)C(=O)N[C@@H](CCCCN)C(=O)N[C@H](C(=O)N[C@@H](CC(C)C)C(=O)N[C@@H](CCCCN)C(=O)N[C@@H](Cc1ccc(O)cc1)C(=O)N[C@@H](CC(C)C)C(N)=O)[C@@H](C)CC [BP500, Ac-KKK(COC11H23)fKKILKYL-NH2] (Ac-KKK(Lauroyl)[dF]KKILKYL-NH2) |  | 71 ± 8% | 3 ± 2 mm | 6 ± 2 mm | 9 ± 3 mm | 9 ± 3 mm |  |  | 71 ± 2% |  |  |  |  |  | 
Ac-KKLFKKILKK(COC3H7)L-NH2 [BP389, analog of BP475 with all L-amino acids] |  |  |  |  |  |  |  |  |  | 9 ± 4% | 22 ± 2% | 39 ± 3% | 4 ± 1 mm | 7 ± 1 mm | 9 ± 3 mm
